ChEMBL document CHEMBL1201862, “PubChem BioAssay data set” (2004)
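Protocol summary: plate cells (96-well), add compound at 5 concentrations, incubate 48 h, interpolate endpoints linearly. GI50 is the concentration that inhibits growth by half.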 Active and inactive are the calls of the source. No stated cut-off is given here; in the data, active = GI50 up to about 1.1 µM and inactive = higher.

Legend:
Experiment in all cases: NCI anticancer screen, dose series, 48 h
M14 = tested on: M14
EKVX = tested on: EKVX
NCI-H23 = tested on: NCI-H23
CCRF-CEM = tested on: CCRF-CEM
PC-3 = tested on: PC-3
SK-MEL-5 = tested on: SK-MEL-5
IGROV-1 = tested on: IGROV-1
K562 = tested on: K562
A498 = tested on: A498
UO-31 = tested on: UO-31
COLO 205 = tested on: COLO 205
MDA-N = tested on: MDA-N
SNB-19 = tested on: SNB-19
BT-549 = tested on: BT-549
TK-10 = tested on: TK-10
SK-OV-3 = tested on: SK-OV-3
SNB-75 = tested on: SNB-75
HOP-92 = tested on: HOP-92
A549 = tested on: A549

SMILES	GI50 (M14)	GI50 (EKVX)	GI50 (NCI-H23)	GI50 (CCRF-CEM)	GI50 (PC-3)	GI50 (SK-MEL-5)	GI50 (IGROV-1)	GI50 (K562)	GI50 (A498)	GI50 (UO-31)	GI50 (COLO 205)	GI50 (MDA-N)	GI50 (SNB-19)	GI50 (BT-549)	GI50 (TK-10)	GI50 (SK-OV-3)	GI50 (SNB-75)	GI50 (HOP-92)	GI50 (A549)
O=C(c1ccc(Cl)cc1)N(C(=S)OCc1ccccn1)c1ccccc1	65.3 µM (inactive)	20.6 µM (inactive)	67.6 µM (inactive)	43.6 µM (inactive)	45.1 µM (inactive)	58.9 µM (inactive)	36.1 µM (inactive)	48.1 µM (inactive)	> 100 µM (inactive)	31 µM (inactive)	> 100 µM (inactive)	> 100 µM (inactive)	> 100 µM (inactive)	60.7 µM (inactive)	88.1 µM (inactive)	> 100 µM (inactive)			
C=CC/N=C(\S)Nc1sc2c(c1C(=O)OCC)CC(C)CC2 (stereo not given)	24 µM (inactive)	28.1 µM (inactive)	32.7 µM (inactive)		21.1 µM (inactive)	16.3 µM (inactive)	33.3 µM (inactive)	33 µM (inactive)		23.7 µM (inactive)	18.6 µM (inactive)	30.5 µM (inactive)	26.3 µM (inactive)	35.6 µM (inactive)	26.3 µM (inactive)	25.4 µM (inactive)	24.3 µM (inactive)	33 µM (inactive)	24.8 µM (inactive)
O=C(c1ccc(Cl)cc1Cl)N(C(=O)N1CCC(c2ccccc2)CC1)c1ccccc1	> 100 µM (inactive)	86.9 µM (inactive)	> 100 µM (inactive)	13.8 µM (inactive)	91.2 µM (inactive)	37.3 µM (inactive)	92.9 µM (inactive)	34.4 µM (inactive)	97.7 µM (inactive)	> 100 µM (inactive)	43.3 µM (inactive)		> 100 µM (inactive)	> 100 µM (inactive)		> 100 µM (inactive)	> 100 µM (inactive)	> 100 µM (inactive)	> 100 µM (inactive)
CC1(C)N=c2c(ncn2CCO)=C(C(N)=O)N1	> 100 µM (inactive)	> 100 µM (inactive)	> 100 µM (inactive)	> 100 µM (inactive)	> 100 µM (inactive)	> 100 µM (inactive)	> 100 µM (inactive)	> 100 µM (inactive)	> 100 µM (inactive)		> 100 µM (inactive)	> 100 µM (inactive)	> 100 µM (inactive)		> 100 µM (inactive)	> 100 µM (inactive)		26.2 µM (inactive)	> 100 µM (inactive)
COc1ccccc1/C=C1/Sc2scc(CC(=O)Nc3ccccc3)[n+]2C1=O	28.4 µM (inactive)	30.9 µM (inactive)	28.6 µM (inactive)	17.7 µM (inactive)	26 µM (inactive)	16 µM (inactive)	38 µM (inactive)			17.9 µM (inactive)	20.4 µM (inactive)	20.2 µM (inactive)	29.1 µM (inactive)	15.3 µM (inactive)	25.2 µM (inactive)	27.5 µM (inactive)	26.9 µM (inactive)	17 µM (inactive)	31.5 µM (inactive)
COc1cc(C2c3cc4c(cc3OC(Nc3ccccc3)C2C)OCO4)cc(OC)c1O (stereo not given)	15.5 µM (inactive)		7.03 µM (inactive)		2.8 µM (inactive)	3.08 µM (inactive)	4.55 µM (inactive)	1.97 µM (inactive)		8.38 µM (inactive)	11.3 µM (inactive)	1.18 µM (inactive)	10.6 µM (inactive)	11.5 µM (inactive)	3.49 µM (inactive)		1.63 µM (inactive)	16.7 µM (inactive)	3.85 µM (inactive)
CC1CC(C)C(O)C(C2CC(CC(=O)NC3CCCCC3)CC(=O)O2)C1 (stereo not given)	> 100 µM (inactive)	> 100 µM (inactive)	> 100 µM (inactive)	> 100 µM (inactive)	> 100 µM (inactive)	> 100 µM (inactive)	> 100 µM (inactive)	> 100 µM (inactive)	> 100 µM (inactive)		> 100 µM (inactive)	> 100 µM (inactive)	> 100 µM (inactive)		> 100 µM (inactive)		> 100 µM (inactive)	> 100 µM (inactive)	> 100 µM (inactive)
O=C1/C(=N/c2ccc(Nc3ccccc3)cc2)Oc2ccccc21	2.33 µM (inactive)	5.31 µM (inactive)	2.04 µM (inactive)	1.86 µM (inactive)	2.81 µM (inactive)	4.68 µM (inactive)	3.06 µM (inactive)	2.93 µM (inactive)	5.69 µM (inactive)	2.35 µM (inactive)	1.65 µM (inactive)	2.74 µM (inactive)	2.36 µM (inactive)		3.84 µM (inactive)	5.98 µM (inactive)	2.15 µM (inactive)		3.51 µM (inactive)
O=C1CSC(c2ccccc2O)N1c1ccc2c(c1)Oc1c(Cl)c3c(c(Cl)c1=N2)Oc1cc(N2C(=O)CSC2c2ccccc2O)ccc1N=3 (stereo not given)	48.6 µM (inactive)	> 100 µM (inactive)	58.3 µM (inactive)	18.1 µM (inactive)	38.4 µM (inactive)	> 100 µM (inactive)	36.1 µM (inactive)	13.2 µM (inactive)	> 100 µM (inactive)	> 100 µM (inactive)		38.4 µM (inactive)			62.5 µM (inactive)	25.8 µM (inactive)		17.1 µM (inactive)	
N=C(N)N/N=C\c1c(-c2ccccc2)nc2sccn12		14.5 µM (inactive)	12.5 µM (inactive)	21.6 µM (inactive)	15.1 µM (inactive)	15.6 µM (inactive)	13.6 µM (inactive)	17.3 µM (inactive)	19.5 µM (inactive)	17.8 µM (inactive)	12 µM (inactive)	14.1 µM (inactive)	14.3 µM (inactive)		17.4 µM (inactive)	19 µM (inactive)	12.2 µM (inactive)	14.1 µM (inactive)	17.5 µM (inactive)
CC(C)(C)OC(=O)N1CCC23CCCC2C(=O)CC=C13 (stereo not given)	> 100 µM (inactive)	> 100 µM (inactive)	> 100 µM (inactive)	37.9 µM (inactive)	> 100 µM (inactive)	> 100 µM (inactive)	> 100 µM (inactive)	> 100 µM (inactive)		> 100 µM (inactive)	70.8 µM (inactive)		> 100 µM (inactive)	> 100 µM (inactive)	> 100 µM (inactive)	> 100 µM (inactive)	> 100 µM (inactive)	38.3 µM (inactive)	> 100 µM (inactive)
C/C=C(\C)C(=O)O[C@@H]1CC(C)(C)CC2C3=CCC4[C@]56CC[C@](O)(OC5)C(C)(C)C6CC[C@@]4(C)C3(C)CC[C@]21C(=O)O (stereo not given in full)	> 100 µM (inactive)	> 100 µM (inactive)	> 100 µM (inactive)	> 100 µM (inactive)	39.3 µM (inactive)	> 100 µM (inactive)	54.3 µM (inactive)	> 100 µM (inactive)	> 100 µM (inactive)		83.9 µM (inactive)	> 100 µM (inactive)	> 100 µM (inactive)	> 100 µM (inactive)	> 100 µM (inactive)	> 100 µM (inactive)			53.3 µM (inactive)
O=C1CCc2ccccc2O1 [DIHYDROCOUMARIN]		> 100 µM (inactive)	> 100 µM (inactive)	> 100 µM (inactive)	> 100 µM (inactive)		> 100 µM (inactive)	> 100 µM (inactive)	> 100 µM (inactive)	> 100 µM (inactive)	> 100 µM (inactive)	53.1 µM (inactive)	> 100 µM (inactive)		> 100 µM (inactive)	> 100 µM (inactive)	> 100 µM (inactive)	> 100 µM (inactive)	
CCCN(CCC)C(=S)N/N=C/c1cccc(C)n1	< 0.01 µM (active)	0.552 µM (active)	0.275 µM (active)	< 0.01 µM (active)	0.0773 µM (active)	0.129 µM (active)	0.0733 µM (active)	< 0.01 µM (active)	0.233 µM (active)	0.177 µM (active)	< 0.01 µM (active)	0.621 µM (active)	0.533 µM (active)		0.142 µM (active)	0.718 µM (active)	0.261 µM (active)	0.391 µM (active)	0.108 µM (active)
FC1=C2CCCCCC2SC1(F)F (stereo not given)	30.7 µM (inactive)	> 100 µM (inactive)	> 100 µM (inactive)	3.36 µM (inactive)	> 100 µM (inactive)	> 100 µM (inactive)	> 100 µM (inactive)	20.8 µM (inactive)		> 100 µM (inactive)	19.1 µM (inactive)	42.2 µM (inactive)	> 100 µM (inactive)	> 100 µM (inactive)	36.6 µM (inactive)	> 100 µM (inactive)	> 100 µM (inactive)	7.18 µM (inactive)	> 100 µM (inactive)
C/C=C/OC1C(C2COC(C)(C)O2)OC2OC(C)(C)OC21 (stereo not given)	> 100 µM (inactive)	> 100 µM (inactive)	> 100 µM (inactive)	> 100 µM (inactive)	> 100 µM (inactive)	> 100 µM (inactive)	> 100 µM (inactive)	> 100 µM (inactive)	> 100 µM (inactive)	> 100 µM (inactive)		> 100 µM (inactive)	> 100 µM (inactive)		> 100 µM (inactive)	> 100 µM (inactive)	> 100 µM (inactive)	> 100 µM (inactive)	> 100 µM (inactive)
O=C(O)CNC(=O)c1ccc2cc(C(=O)N3CC(CCl)c4ccc([N+](=O)[O-])cc43)[nH]c2c1 (stereo not given)	> 100 µM (inactive)	> 100 µM (inactive)	> 100 µM (inactive)	> 100 µM (inactive)	> 100 µM (inactive)	> 100 µM (inactive)	> 100 µM (inactive)			> 100 µM (inactive)	> 100 µM (inactive)	> 100 µM (inactive)	> 100 µM (inactive)	> 100 µM (inactive)	> 100 µM (inactive)	> 100 µM (inactive)	> 100 µM (inactive)	> 100 µM (inactive)	> 100 µM (inactive)
